Measurements reported in patent publication US10780106B2, “Method for treating NASH accompanied by fibrosis using Cl-IB-MECA” (CAN-FITE BIOPHARMA LTD., priority 2015, dated 2020).
“Also recorded” adds a separate entry of the source.

What was measured:
hepatocyte = conditions: as disclosed in WO09/050707; cited from earlier work
NASH mice [1] = assay: Example 1: STZ plus high fat diet NASH mouse model, effect of CF102 on liver weight, ALT, TG and liver histology; type: in vivo, Male C57BL/6 mice
Method: Male C57BL/6 mice were used as a murine experimental model.
The A3AR agonist, 2-Chloro-N^6-(3-iodobenzyl)-adenosine-5′-N-methyluronamide (Cl-IB-MECA, referred to herein by the abbreviated name CF102), was synthesized for Can-Fite BioPharma by Albany Molecular Research Inc, Albany. N.Y., USA. CF102 was used in liquid form, dissolved in dimethyl sulfoxide (DMSO), used as the vehicle. Dissolved CF102 and the DMSO vehicle were administered at the same volume.
Male C57BL/6 mice were injected with a single subcutaneous injection of 200 μg streptozotocin (STZ) two days after birth and feeding with high fat diet after 4 weeks of age. […] Treatment was given between 6 weeks of age and 9 weeks of age.
After Study termination, liver weight was measured and Liver-to-Body weight ratio was calculated.
Plasma ALT and liver triglyceride were measured and histological analyses were made on the liver sections for the following: Hematoxylin & Eosin staining for estimation of NAFLD Activity score and Sirius red staining for estimation of fibrosis area.

NASH mice [2] = assay: Example 2: STZ plus high fat diet mouse model, effect of CF102 on NAS score; type: in vivo; conditions: CF102 200 μg/kg orally thrice daily, 6 to 9 weeks of age; compared to the vehicle
Method: Male mice were injected with 200 μg/animal STZ two days after birth. From 4 weeks of age, the mice were fed with high fat diet. At 6 weeks of age, the mice were randomized into vehicle and CF102 200 μg/kg treatment groups. Treatment was given orally, thrice daily. Termination was performed after 9 weeks. Hematoxylin & Eosin staining was used for estimation of NAFLD Activity.

[3] = Hematoxylin & Eosin liver histology, compared to the Vehicle
[4] = NASH mice, CF102 orally thrice daily from 6 to 9 weeks of age, vs vehicle

Compound: CNC(=O)[C@H]1O[C@@H](n2cnc3c(NCc4cccc(I)c4)nc(Cl)nc32)[C@H](O)[C@@H]1O [CF102, 2-Chloro-N^6-(3-iodobenzyl)-adenosine-5′-N-methyluronamide]
- hepatocyte proliferation (hepatocyte): induce hepatocyte proliferation
- NAFLD activity score (NASH mice [1]; CF102 200 μg/kg, FIG. 4): decrease in NAFLD activity score
- ballooning (liver sections) (NASH mice [1]; [3]): significant decrease
- lobular inflammation (liver sections) (NASH mice [1]; [3]): significant decrease
- steatosis (liver sections) (NASH mice [1]; [3]): significant decrease
- liver-to-body weight ratio (NASH mice [1]; NASH livers in mice, CF102 orally thrice daily from 6 to 9 weeks of age, vs vehicle, p=0.05): reduced liver-to-body weight ratio; also recorded: reduction of liver-to-body weight ratio
- Triglycerides levels in the liver (NASH mice [1]; [4]): decrease
- plasma ALT level (NASH mice [1]; [4]): decreased ALT levels; also recorded: decrease in plasma ALT level
- inflammation NAS (NAFLD Activity Score) score (NASH mice [2]): reduced the inflammation NAS; also recorded: reducing the inflammation NAS score
